The numbers were not newly measured in patent publication US20100055036A1, “PET VISUALIZATION OF AMYLOID-ASSOCIATED NEUROINFLAMMATION IN THE BRAIN” (National Institute of Radiolotgical Sciences, priority 2007, published 2010), which cites them from elsewhere.

The series deals with amyloid plaque lesions in mouse brain. Conditions: mice developing abundant plaque lesions vs WT.

In the case of `[11CH3]Nc1ccc(-c2nc3ccc(O)cc3s2)cc1` [[^11C]6-OH-BTA-1, N-[^11C]methyl-2-(4′-methylaminophenyl)-6-hydroxybenzothiazole], the “PET data in brains of plaque-bearing mice compared with wild-type mouse brains” value is listed as “virtually indistinguishable”.
